In patent publication US20060233711A1, “Method for treating conditions associated with fear memory” (priority 2005, published 2006):

Columns and labels:
[1] = system: EPSCs in LA neurons (thalamic input); assay: Whole-cell patch-clamp recording of EPSCs in lateral amygdala neurons in slices; type: cell-based, mice
Procedure: Transverse slices ([…]) of the amygdala were transferred to a room temperature submerged recovery chamber with oxygenated (95% O2 and 5% CO2) ACSF solution as described above. After a one hour recovery, slices were placed in a recording chamber on the stage of an Axioskop 2FS microscope (Zeiss) equipped with infrared DIC optics for visualized whole-cell patch clamp recordings. Excitatory postsynaptic currents were recorded from cells in the lateral amygdala with an Axon 200B amplifier (Axon Instruments, Calif., USA). Electrical stimulations (200 μsec duration) were delivered by a bipolar tungsten stimulating electrode placed in the internal capsule (thalamic inputs) (Tsvetkov et al., 2004). EPSCs were induced by repetitive stimulations at 0.02-0.05 Hz and neurons were voltage clamped at −70 mV. In all experiments, the stimulus intensity was adjusted to produce synaptic responses with an amplitude of 70-100 pA. […] Access resistance was 15-30 M ? and monitored throughout the experiment. […]

[2] = target: AMPA receptors; settings: cited from earlier work
[3] = system: KARs; settings: SYM2206 at 100 μM; cited from earlier work
[4] = system: GluR5; settings: treated animals; cited from earlier work

CCCNC(=O)N1N=C(c2ccc(N)cc2)c2cc3c(cc2C1C)OCO3 (racemic) [SYM2206, (±)-4-(4-aminophenyl)-1,2-dihydro-1-methyl-2-propylcarbamoyl-6,7-methylenedioxyphthalazine]
effect on EPSCs ([1]; bath application of AP5 (50 μM) plus SYM2206 (100 μM), n=17, LA neurons): reduced, but did not completely block | IC50 ([2]; AMPA receptors, read-out: half-maximal inhibitory concentration): 1000 to 2000 nM | inhibition of AMPA receptors ([2]; SYM2206 at 100 μM): maximal inhibition | inhibition of KARs [3]: 20-30%

N#Cc1cc2[nH]c(=O)c(=O)[nH]c2cc1[N+](=O)[O-] [CNQX]
effect on residual (SYM2206-insensitive) current ([1]; CNQX 20 μM, after AP5 plus SYM2206, n=5): completely blocked

O=C(O)c1ccc(C[C@H]2CC[C@H]3CN[C@H](C(=O)O)C[C@H]3C2)cc1 [LY382884]
behavioral responses to formalin and Complete Freund's adjuvant (CFA) [4]: reduced
